Measured values published in US9045524B2, “Selective caspase inhibitors and uses thereof” (NOVAGENESIS FOUNDATION, priority 2009, dated 2015).

Key:
[1] = tested on: proteolytic cleavage of PARP (poly ADP-ribose polymerase) in Hela cells; assay: Inhibition of staurosporine-induced PARP cleavage in live Hela cells; type: cell-based
Method in brief: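 HeLa cells in 96 well plates were exposed for 4 hours to the apoptosis inducer staurosporine with or without test compound. Fixed cells were stained with a fluorescein-labeled anti-cleaved PARP antibody and counterstained with Hoechst33342. Cellomics imaging gave the fraction of nuclei positive for cleaved PARP, and inhibition was computed relative to staurosporine-only treatment.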

[2] = molecular target: Caspase-2 (Homo sapiens (Human), UniProt P42575); assay: Fluorometric enzymatic assay, active recombinant Caspase-2; type: biochemical; conditions: 10-point titration 0.1 nM to 3.3 μM, 30-minute incubation at 37° C.; read-out: IC50 values (μM) Caspase-2
Sequence of Caspase-2 (P42575 170-325): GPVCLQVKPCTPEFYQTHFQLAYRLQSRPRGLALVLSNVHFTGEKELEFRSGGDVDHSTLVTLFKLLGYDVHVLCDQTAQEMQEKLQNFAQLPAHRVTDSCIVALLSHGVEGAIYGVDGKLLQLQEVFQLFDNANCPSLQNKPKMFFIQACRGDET
Sequence of Caspase-2 (P42575 348-452): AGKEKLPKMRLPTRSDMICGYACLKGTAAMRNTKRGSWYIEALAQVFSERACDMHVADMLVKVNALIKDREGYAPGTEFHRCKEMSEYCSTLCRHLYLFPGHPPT
Procedure: (§1) . In brief, each compound was serially diluted for a final test concentration range of 0.1 nM to 3.3 μM (10-point titration). Each active recombinant Caspase (Active Recombinant Caspase Set IV™ (BioVision, Cat# K233-10-25)) was added to the respective wells of the 96-well High Efficiency™ plates (Molecular Devices, Cat#75-000-0005), followed by the addition of the diluted test compounds. DMSO (Final=1%) or Z-VAD-FMK (Caspase-Family Inhibitor, Z-VAD-FMK (BioVision, Cat#1010-100), Final concentration=20 uM) was added in the designated wells as a background control or positive inhibitor control respectively. Each dilution of the test compounds was tested in duplicates, whereas the DMSO or Z-VAD-FMK controls were tested in triplicates. The synthetic peptide substrate specific for each Caspase (BioVision) was then added to the respective wells, which when cleaved by the active caspase releases free AFC that can be quantified by fluorometry. After a 30-minute incubation at 37° C., the plates were read using the Flexstation 3™ with a 400 nm excitation filter and a 505 nm emission filter (cutoff at 495 nm). The inhibition efficiency and the IC50 values of the test compounds were then determined by comparing the fluorescence intensity (FI) of the test compounds with that of the DMSO control.
(§2) The SoftMax Pro Software™ (v5.2 rev C, Molecular Devices) was used for data analysis. The % Inhibition is calculated by: % Inhibition=[FI(DMSO)−FI(test sample)/FI(DMSO)]×100. The % Inhibition vs. Log(concentration) was plotted, and the curve was fitted using the 5-parameter fit of the software.

[3] = molecular target: Caspase-5 (Homo sapiens (Human), UniProt P51878); assay: Fluorometric enzymatic assay, active recombinant Caspase-5; type: biochemical; conditions: 10-point titration 0.1 nM to 3.3 μM, 30-minute incubation at 37° C.; read-out: IC50 values (μM) Caspase-5
Sequence of Caspase-5 (P51878 whole entry, looked up): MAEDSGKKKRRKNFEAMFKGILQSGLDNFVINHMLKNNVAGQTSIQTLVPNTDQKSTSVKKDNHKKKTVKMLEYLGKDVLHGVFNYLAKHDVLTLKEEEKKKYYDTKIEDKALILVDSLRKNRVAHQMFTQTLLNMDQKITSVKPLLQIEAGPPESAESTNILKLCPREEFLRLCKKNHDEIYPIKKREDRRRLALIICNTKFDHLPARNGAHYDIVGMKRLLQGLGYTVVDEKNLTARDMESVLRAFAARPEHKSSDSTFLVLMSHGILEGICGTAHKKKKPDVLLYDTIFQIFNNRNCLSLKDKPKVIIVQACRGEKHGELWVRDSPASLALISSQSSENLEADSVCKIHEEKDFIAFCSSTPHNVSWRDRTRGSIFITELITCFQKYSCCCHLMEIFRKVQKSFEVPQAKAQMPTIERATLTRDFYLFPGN
Sequence of Caspase-5 (P51878 whole entry, looked up): as above
Procedure: as §1, §2

[4] = molecular target: Caspase-10 (Homo sapiens (Human), UniProt Q92851); assay: Fluorometric enzymatic assay, active recombinant Caspase-10; conditions: read-out: IC50 values (μM) Caspase-10; 10-point titration 0.1 nM to 3.3 μM, 30-minute incubation at 37° C.
Sequence of Caspase-10 (Q92851 220-415): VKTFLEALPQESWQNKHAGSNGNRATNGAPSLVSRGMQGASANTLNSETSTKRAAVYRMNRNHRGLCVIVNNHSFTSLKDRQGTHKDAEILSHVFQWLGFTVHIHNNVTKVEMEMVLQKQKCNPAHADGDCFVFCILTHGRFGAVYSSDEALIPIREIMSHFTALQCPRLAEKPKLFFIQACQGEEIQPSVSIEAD
Sequence of Caspase-10 (Q92851 416-521): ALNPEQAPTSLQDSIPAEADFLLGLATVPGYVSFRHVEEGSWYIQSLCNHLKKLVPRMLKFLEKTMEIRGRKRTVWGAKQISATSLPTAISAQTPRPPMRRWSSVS
Procedure: Each dilution of the test compounds was tested in duplicates, whereas the DMSO or Z-VAD-FMK controls were tested in triplicates. […] The inhibition efficiency and the IC50 values of the test compounds were then determined by comparing the fluorescence intensity (FI) of the test compounds with that of the DMSO control.

[5] = molecular target: Caspase-7 (Homo sapiens (Human), UniProt P55210); assay: Caspase-7 Inhibitor Drug Screening Kit, fluorometric (AFC liberation); type: biochemical; conditions: 30-minute incubation at 37° C.; approximations of the average values; read-out: Caspase enzymatic activity, IC50 (uM) Caspase 7
Sequence of Caspase-7 (P55210 whole entry): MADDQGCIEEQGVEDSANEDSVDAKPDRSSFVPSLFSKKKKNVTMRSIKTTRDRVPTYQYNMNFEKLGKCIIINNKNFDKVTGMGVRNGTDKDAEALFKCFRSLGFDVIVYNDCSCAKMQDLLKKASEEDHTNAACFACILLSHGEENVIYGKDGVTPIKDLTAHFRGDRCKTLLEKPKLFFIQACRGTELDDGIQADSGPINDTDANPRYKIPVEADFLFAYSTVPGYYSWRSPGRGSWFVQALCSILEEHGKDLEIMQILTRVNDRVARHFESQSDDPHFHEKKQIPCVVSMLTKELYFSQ
Procedure: The level of inhibition of caspase-1, -3, -5, -7, -9 activity was determined by comparison of the relative fluorescence intensity in samples with or without the compound.

CC(C)[C@H](NC(=O)[C@@H](NC(=O)[C@H](CC(=O)O)NC(=O)OCc1ccccc1)c1ccccc1)C(=O)N[C@H](/C=C/S(C)(=O)=O)CC(=O)O [Compound 53, Z-Asp-Phg-Val-Aspmethyl vinyl sulfone]
effectivity in inhibiting PARP cleavage ([1]; Hela cells, staurosporine): highly effective relative to DEVD-fmk | inhibition at 50 µM ([1]; Homo sapiens, HeLa, 4 h, read-out: % inhibition of PARP cleavage at 50 uM compound, Hela cells, staurosporine 4 hours, 50 uM compound): > 50% | IC50 [2]: > 3.33 µM | IC50 [3]: > 3.33 µM | IC50 [4]: > 3.33 µM | IC50 [5]: 0.8 µM
